Reference: patent US11117931B2, “Antimicrobial peptide derived from Hp1404 peptide and uses thereof” (priority 2017, dated 2021)
Where no end group is shown, it is not given here.

How the values were obtained:
[1] = tested on: erythrocytes of a mouse (Balb/c); experiment: Hemolytic activity; assay type: cell-based
Procedure: To compare the cytotoxicity among the peptides that are produced by the method of Example 1, erythrocyte hemolytic activity of the synthesized peptide was measured.
Specifically, erythrocytes of a mouse (Balb/c, 6 week old, female) were diluted in physiological saline (PBS, pH 7.0) to have concentration of 8%, and then subjected to a treatment with Hp1404, Hp1404-T1, Hp1404-T1a, Hp1404-T1b, Hp1404-T1c, Hp1404-T1d or Hp1404-T1e, each at concentration of 6.25, 12.5, 25.0, 50.0, 100.0 and 200.0 μM/well, respectively, followed by a reaction for 1 hour at 37° C. After that, the amount of hemoglobin contained in a supernatant collected by centrifuge at 1,000×g was determined by measuring the absorbance at a wavelength of 414 nm. As a control group to be used as a reference for cell disruption level, the supernatant collected by a treatment with 1% Triton X-100 (Sigma, USA) and a reaction for 1 hour at 37° C. was used to measure the absorbance. By setting the resulting absorbance value at 100%, the hemolytic activity of each peptide was calculated using the following mathematical formula 1. Erythrocyte disrupting ability (hemolysis) (%)=(Absorbance A−Absorbance B)/(Absorbance C−Absorbance B)×100 [Mathematical formula 1] (in the above formula, Absorbance A indicates the absorbance of a reaction solution treated with each peptide, in which the absorbance is measured at a wavelength of 414 nm; Absorbance B indicates the absorbance of a reaction solution treated with PBS, in which the absorbance is measured at a wavelength of 414 nm; and Absorbance C indicates the absorbance of a reaction solution treated with 1% Triton X-100, in which the absorbance is measured at a wavelength of 414 nm).

[2] = Cytotoxicity in normal cell line (MTT); assay type: cell-based; conditions: human, HaCaT keratinocytes, read-out: Cell survival ability; for viability at 24 h, 6.25 µM: peptide concentration 6.25 μM; for viability at 24 h, 12.5 µM: peptide concentration 12.5 μM; for viability at 24 h, 25 µM: peptide concentration 25 μM; for viability at 24 h, 50 µM: peptide concentration 50 μM; for viability at 24 h, 100 µM: peptide concentration 100 μM; for viability at 24 h, 200 µM: peptide concentration 200 μM, HaCaT
Procedure: To determine the cytotoxicity of the peptide produced by the method of Example 1 in normal cell line, toxicity was measured by using human keratinocytes (HaCaT cell line, Dr. N E. Fusenig, Heidelberg, Germany).
Specifically, HaCaT cells which have been cultured in DMEM medium containing 10% FBS (Fetal Bovine Serum) were aliquoted in a 96-well plate to have 2×10^5 cells per well. After culturing them for 24 hours, the cells were subjected to a treatment with Hp1404, Hp1404-T1, Hp1404-T1a, Hp1404-T1b, Hp1404-T1c, Hp1404-T1d, or Hp1404-T1e, each at concentration of 6.25, 12.5, 25.0, 50.0, 100.0 or 200.0 μM/well, followed by reaction for 24 hours in a 5% CO2 incubator. After 24 hours, a reaction solution containing 0.5 mg/ml MTT (Thiazolyl Blue Tetrazolium Bromide) dissolved in physiological saline (PBS) was added in an amount of 100 μl to each well and the reaction was allowed to occur for 4 hours. After that, the supernatant was removed, and, by dissolving MTT crystals that are formed by adding 200 μl of DMSO (dimethyl sulfoxide), the absorbance at 560 nm was measured to determine the cell survival ability.

[3] = tested on: lipopolysaccharide (LPS) isolated from P. aeruginosa; experiment: Binding ability between lipopolysaccharide (LPS) and peptide; conditions: peptide at 1×MIC
Procedure: By using the peptides prepared by the method of Example 1, binding to lipopolysaccharide (LPS), which is a constitutional component of a cell wall of Gram-negative bacteria, was examined. LPS used in the present invention was isolated from P. aeruginosa. Lipopolysacchride (0 to 100 μg/ml) was diluted with 10 mM sodium phosphate buffer (pH 7.2), reacted with each peptide at a concentration of 1× or 2×MIC, and then cultured with the bacteria at 2×10^5 CFU/ml. By measuring the absorbance at 600 nm, the binding ability to the peptide was determined. Additionally, after reacting 0.1% […] with the peptide (40 μM) in an incubator, the secondary structure was examined by circular dichroism (CD) spectroscopy.

[4] = Stability against trypsin enzyme (RP-HPLC); assay type: in vitro ADME; conditions: 20 nM trypsin, 37° C., read-out: amount of remaining peptide; for remaining at 1 h, 200 μg/mL: reaction for 1 hour; for remaining at 2 h, 200 μg/mL: reaction for 2 hours
Procedure: To determine whether or not the peptides prepared by the method of Example 1 have stability against an enzyme, RP-HPLC (reverse-phase HPLC) was carried out. Specifically, 20 μg of the peptide was reacted with 100 μl of trypsin at concentration of 20 nM for 1 to 2 hours at 37° C. After the reaction, 20 μl of the reaction product was applied to RP-HPLC, and the amount of remaining peptide was examined.

S. aureus = experiment: MIC, S. aureus; assay type: cell-based, Staphylococcus aureus; conditions: S. aureus (ATCC 25923), 18 hours at 37° C.
From the text: To compare the antimicrobial activity among the peptides produced by the method of Example 1, the inventors of the present invention measured the minimal growth inhibitory concentration (MIC), which is minimum concentration of the peptide showing no dissociation of bacterial cells.
Specifically, the bacterial strain described in the following Table 2 was purchased and cultured to a mid-log phase in each medium with a composition suitable for each strain. Then, after dilution to bacterial cell concentration of 2×10^4 cells/100 μl, the cells were inoculated to a microtiter plate (NUNC, USA). Thereafter, Hp1404-T1, Hp1404-T1a, Hp1404-T1b, Hp1404-T1c, Hp1404-T1d or Hp1404-T1e peptide which has been synthesized in Example 1 above was subjected to serial dilution, ½ times for each, with BSA (bovine serum albumin) solution in a 96-well plate. After adding the cells to a plate, the cells were cultured for 18 hours at 37° C. By using a microtiter plate reader (Merck Elisa reader, Germany), the absorbance was measured at a wavelength of 600 nm to determine the MIC value of each bacterial strain. As a control group, Hp1404 as a mother peptide was used.

plasmid DNA (pRSETB) = experiment: Binding between antimicrobial peptide and DNA (gel electrophoresis); conditions: peptide/DNA ratio 0.25:1 to 4:1, 10 minutes at 37° C.
Procedure: To figure out the working mechanism of the synthetic peptides of the present invention for showing the antimicrobial activity, electrophoresis was carried out to examine the possible binding of synthetic peptides, i.e., Hp1404, […], Hp1404-T1d and Hp1404-T1e, to DNA as an internal material of bacteria.
Specifically, after reacting the plasmid DNA (pRSETB, 260 ng) with the peptide at different ratio (i.e., peptide/DNA ratio is as follows for lane number 1 to lane number 8: DNA only, 0.25:1, 0.5:1, 1:1, 1.5:1, 2:1, 3:1, and 4:1. respectively) for 10 minutes at 37° C., they were subjected to electrophoresis using 1% agarose gel followed by ethidium bromide (EtBr) staining and UV visualization.

With ILKKLLKKVKKI-NH2 [Hp1404-T1e] as the substance, how does the Erythrocyte disrupting ability ([1]; peptide concentration 6.25 μM) read?
Its Erythrocyte disrupting ability is 0.10%.

And the Erythrocyte disrupting ability ([1]; peptide concentration 12.5 μM)?
The Erythrocyte disrupting ability was 0.28%.

And the Erythrocyte disrupting ability ([1]; peptide concentration 25 μM)?
The Erythrocyte disrupting ability was 0.41%.

What about the Erythrocyte disrupting ability ([1]; peptide concentration 50 μM) of the same substance?
Its Erythrocyte disrupting ability is 0%.

And the Erythrocyte disrupting ability ([1]; peptide concentration 100 μM)?
Its Erythrocyte disrupting ability is 0.15%.

And the viability at 24 h, 6.25 µM [2]?
Its viability at 24 h, 6.25 µM is 100%.

What about the viability at 24 h, 12.5 µM [2] of the same substance?
Its viability at 24 h, 12.5 µM is 100%.

What about the viability at 24 h, 25 µM [2] of the same substance?
The viability at 24 h, 25 µM was 100%.

What about the viability at 24 h, 50 µM [2] of the same substance?
Its viability at 24 h, 50 µM is 100%.

What about the viability at 24 h, 100 µM [2] of the same substance?
Its viability at 24 h, 100 µM is 100%.

And the viability at 24 h, 200 µM [2]?
Its viability at 24 h, 200 µM is 100%.

And the “binding to LPS, rank order” value [3]?
The value was “binding to LPS increases in order of Hp1404-T1e, Hp1404-T1d, Hp1404-T1c, and Hp1404”.

And the remaining at 1 h, 200 μg/mL [4]?
The remaining at 1 h, 200 μg/mL was no less than 80%.

What about the remaining at 2 h, 200 μg/mL [4] of the same substance?
The remaining at 2 h, 200 μg/mL was 80%.

And the Minimal inhibitory concentration (S. aureus)?
The Minimal inhibitory concentration was 3.13 µM.

What about the “binding to DNA” value (plasmid DNA (pRSETB)) of the same substance?
Its value is “bind to DNA”.

Which Erythrocyte disrupting ability ([1]; peptide concentration 6.25 μM) does the source give for GILGKLWEGVKSIF-NH2 [Hp1404] here?
The Erythrocyte disrupting ability was 0.01%.

What about the Erythrocyte disrupting ability ([1]; peptide concentration 12.5 μM) of the same substance?
The Erythrocyte disrupting ability was 2.16%.

And the Erythrocyte disrupting ability ([1]; peptide concentration 25 μM)?
Its Erythrocyte disrupting ability is 11.01%.

What about the Erythrocyte disrupting ability ([1]; peptide concentration 50 μM) of the same substance?
The Erythrocyte disrupting ability was 55.41%.

And the Erythrocyte disrupting ability ([1]; peptide concentration 100 μM)?
The Erythrocyte disrupting ability was 92.64%.

What about the Erythrocyte disrupting ability ([1]; peptide concentration 200 μM, 1 hour at 37° C., relative to 1% Triton X-100) of the same substance?
The Erythrocyte disrupting ability was 100%.

And the viability at 24 h, 6.25 µM [2]?
Its viability at 24 h, 6.25 µM is 100%.

And the viability at 24 h, 12.5 µM [2]?
The viability at 24 h, 12.5 µM was 100%.

And the viability at 24 h, 25 µM [2]?
Its viability at 24 h, 25 µM is 100%.

What about the viability at 24 h, 50 µM [2] of the same substance?
Its viability at 24 h, 50 µM is 30.5%.

And the viability at 24 h, 100 µM [2]?
Its viability at 24 h, 100 µM is 0.11%.

What about the viability at 24 h, 200 µM [2] of the same substance?
The viability at 24 h, 200 µM was 0%.

What about the “binding to LPS, rank order” value [3] of the same substance?
The value was “binding to LPS increases in order of Hp1404-T1e, Hp1404-T1d, Hp1404-T1c, and Hp1404”.

And the remaining at 1 h, 200 μg/mL [4]?
The remaining at 1 h, 200 μg/mL was 60%.

And the remaining at 2 h, 200 μg/mL [4]?
Its remaining at 2 h, 200 μg/mL is 45%.

What about the Minimal inhibitory concentration (S. aureus) of the same substance?
The Minimal inhibitory concentration was 3.13 µM.

What about the “binding to DNA” value (plasmid DNA (pRSETB)) of the same substance?
The value was “did not bind to any DNA”.

For ILKKLLKKVKSI-NH2 [Hp1404-T1d], which Erythrocyte disrupting ability ([1]; peptide concentration 6.25 μM) is on record?
The Erythrocyte disrupting ability was 0%.

And the Erythrocyte disrupting ability ([1]; peptide concentration 12.5 μM)?
Its Erythrocyte disrupting ability is 0%.

What about the Erythrocyte disrupting ability ([1]; peptide concentration 25 μM) of the same substance?
The Erythrocyte disrupting ability was 0%.

What about the Erythrocyte disrupting ability ([1]; peptide concentration 50 μM) of the same substance?
The Erythrocyte disrupting ability was 0%.

And the Erythrocyte disrupting ability ([1]; peptide concentration 100 μM)?
Its Erythrocyte disrupting ability is 0%.

And the viability at 24 h, 6.25 µM [2]?
Its viability at 24 h, 6.25 µM is 100%.

And the viability at 24 h, 12.5 µM [2]?
The viability at 24 h, 12.5 µM was 53.9%.

What about the viability at 24 h, 25 µM [2] of the same substance?
The viability at 24 h, 25 µM was 38.9%.

What about the viability at 24 h, 50 µM [2] of the same substance?
The viability at 24 h, 50 µM was 33.1%.

What about the viability at 24 h, 100 µM [2] of the same substance?
Its viability at 24 h, 100 µM is 34.6%.

And the “binding to LPS, rank order” value [3]?
Its value is “binding to LPS increases in order of Hp1404-T1e, Hp1404-T1d, Hp1404-T1c, and Hp1404”.

And the remaining at 1 h, 200 μg/mL [4]?
The remaining at 1 h, 200 μg/mL was no less than 80%.

And the remaining at 2 h, 200 μg/mL [4]?
The remaining at 2 h, 200 μg/mL was 80%.

And the Minimal inhibitory concentration (S. aureus)?
Its Minimal inhibitory concentration is 6.25 µM.

And the “binding to DNA” value (plasmid DNA (pRSETB))?
Its value is “bind to DNA”.
